Data as given in ChEMBL document CHEMBL1255421, “In vitro fungicidal activities of echinocandins against Candida metapsilosis, C. orthopsilosis, and C. parapsilosis evaluated by time-kill studies” (2010).
In brackets after ≈: the same amount, converted by molar mass. Activity calls are given as the source filed them. The rule behind the calls is not given here. Numbered stars: 1 amine (or outer) side, 2 acyl side, 3 side chain; on linkers, the order of the positions; unused ones are H or OH. Bridge positions count the residues as written; N and C are the ends. Square brackets hold non-standard residues; d marks the D form. Peptide text beside a SMILES is read from it. * marks the point of attachment. hTyr(3S-OH,4S-OH,3'-OSO3H) = N[C@H](C(=O)O)[C@H](O)[C@@H](O)c1ccc(O)c(OS(=O)(=O)O)c1; Orn(4R-OH,5R-OH) = O=C([C@H](C[C@@H](O)[C@@H](O)N[*:3])N[*:1])[*:2]; Pro(3S-OH,4S-Me) = C[C@H]1CN[C@H](C(=O)O)[C@H]1O; X1 = CCCCCOc1ccc(-c2cc(-c3ccc(C(=O)*)cc3)no2)cc1; Gln(3R-OH) = NC(=O)C[C@@H](O)[C@H](N)C(=O)O; Hyp = O=C(O)[C@@H]1C[C@@H](O)CN1

Tests used:
Candida orthopsilosis [1] = assay: Antifungal activity against Candida orthopsilosis clinical isolate bloodstream form assessed as time required for 50% reduction in fungal growth at 1 mg/L by time-kill assay; format: functional
Candida metapsilosis [2] = assay: Antifungal activity against Candida metapsilosis clinical isolate bloodstream form assessed as time required for 99% reduction in fungal growth at 4 mg/L by time-kill assay; format: functional
Candida orthopsilosis [3] = assay: Antifungal activity against Candida orthopsilosis clinical isolate bloodstream form assessed as time required for 50% reduction in fungal growth at 16 mg/L by time-kill assay; format: functional
Candida orthopsilosis [4] = assay: Antifungal activity against Candida orthopsilosis clinical isolate bloodstream form assessed as time required for 99.9% reduction in fungal growth at 0.25 mg/L by time-kill assay; format: functional
Candida orthopsilosis [5] = assay: Fungicidal activity against Candida orthopsilosis isolate CP-150 bloodstream form by CLSI method; format: functional; settings: Lodderomyces orthopsilosis
Candida orthopsilosis [6] = assay: Antifungal activity against Candida orthopsilosis clinical isolate bloodstream form assessed as time required for 90% reduction in fungal growth at 4 mg/L by time-kill assay; format: functional
Candida parapsilosis [7] = assay: Antifungal activity against Candida parapsilosis clinical isolate bloodstream form assessed as time required for 99.9% reduction in fungal growth at 1 mg/L by time-kill assay; format: functional
Candida parapsilosis [8] = assay: Fungicidal activity against Candida parapsilosis isolate CP-300 bloodstream form by CLSI method; format: functional; settings: Lodderomyces parapsilosis
Candida parapsilosis [9] = assay: Antifungal activity against Candida parapsilosis clinical isolate bloodstream form assessed as inhibition of fungal regrowth at 0.03 to 32 mg/L after 6 hrs by time-kill assay; format: functional, organism-based
Candida orthopsilosis [10] = assay: Antifungal activity against Candida orthopsilosis clinical isolate bloodstream form assessed as time required for 99% reduction in fungal growth at 4 mg/L by time-kill assay; format: functional
Candida parapsilosis [11] = assay: Antifungal activity against Candida parapsilosis clinical isolate bloodstream form assessed as time required for 99.9% reduction in fungal growth at 0.25 mg/L by time-kill assay; format: functional
Candida metapsilosis [12] = assay: Antifungal activity against Candida metapsilosis clinical isolate bloodstream form assessed as time required for 50% reduction in fungal growth at 0.25 mg/L by time-kill assay; format: functional
Candida parapsilosis [13] = assay: Antifungal activity against Candida parapsilosis clinical isolate bloodstream form assessed as time required for 99.9% reduction in fungal growth at 32 mg/L by time-kill assay; format: functional
Candida parapsilosis [14] = assay: Fungicidal activity against Candida parapsilosis isolate CP-301 bloodstream form by CLSI method; format: functional; settings: Lodderomyces parapsilosis
Candida orthopsilosis [15] = assay: Antifungal activity against Candida orthopsilosis clinical isolate bloodstream form assessed as time required for 50% reduction in fungal growth at 32 mg/L by time-kill assay; format: functional
Candida metapsilosis [16] = assay: Antifungal activity against Candida metapsilosis clinical isolate bloodstream form assessed as induction of fungal killing rate at 0.03 to 32 mg/L measured at 6 hrs by time-kill assay; format: functional, organism-based
Candida metapsilosis [17] = assay: Antifungal activity against Candida metapsilosis clinical isolate bloodstream form assessed as time required for 50% reduction in fungal growth at 16 mg/L by time-kill assay; format: functional
Candida metapsilosis [18] = assay: Antifungal activity against Candida metapsilosis clinical isolate bloodstream form assessed as time required for 90% reduction in fungal growth at 4 mg/L by time-kill assay; format: functional
Candida parapsilosis [19] = assay: Antifungal activity against Candida parapsilosis clinical isolate bloodstream form assessed as time required for 99% reduction in fungal growth at 32 mg/L by time-kill assay; format: functional
Candida orthopsilosis [20] = assay: Fungicidal activity against Candida orthopsilosis isolate ATC194 bloodstream form by CLSI method; format: functional; settings: Lodderomyces orthopsilosis, isolate ATC-194
Candida parapsilosis [21] = assay: Antifungal activity against Candida parapsilosis clinical isolate bloodstream form assessed as minimum concentration required for => 3-log decrease in fungal growth after 12 to 48 hrs by time-kill assay; format: functional
Candida parapsilosis [22] = assay: Antifungal activity against Candida parapsilosis clinical isolate bloodstream form assessed as time required for 90% reduction in fungal growth at 16 mg/L by time-kill assay; format: functional
Candida orthopsilosis [23] = assay: Antifungal activity against Candida orthopsilosis clinical isolate bloodstream form assessed as time required for 99.9% reduction in fungal growth at 1 mg/L by time-kill assay; format: functional
Candida metapsilosis [24] = assay: Antifungal activity against Candida metapsilosis clinical isolate bloodstream form assessed as time required for 50% reduction in fungal growth at 4 mg/L by time-kill assay; format: functional
Candida parapsilosis [25] = assay: Antifungal activity against Candida parapsilosis clinical isolate bloodstream form assessed as time required for 99% reduction in fungal growth at 0.25 mg/L by time-kill assay; format: functional
Candida orthopsilosis [26] = assay: Antifungal activity against Candida orthopsilosis clinical isolate bloodstream form assessed as time required for 90% reduction in fungal growth at 0.25 mg/L by time-kill assay; format: functional
Candida orthopsilosis [27] = assay: Antifungal activity against Candida orthopsilosis clinical isolate bloodstream form assessed as induction of miniparadoxical effect at 16 mg/L after 48 hrs by time-kill assay; format: functional, organism-based
Candida orthopsilosis [28] = assay: Antifungal activity against Candida orthopsilosis clinical isolate bloodstream form assessed as time required for 50% reduction in fungal growth at 4 mg/L by time-kill assay; format: functional
Candida metapsilosis [29] = assay: Antifungal activity against Candida metapsilosis clinical isolate bloodstream form assessed as time required for 99% reduction in fungal growth at 1 mg/L by time-kill assay; format: functional
Candida parapsilosis [30] = assay: Antifungal activity against Candida parapsilosis clinical isolate bloodstream form assessed as time required for 90% reduction in fungal growth at 32 mg/L by time-kill assay; format: functional
Candida orthopsilosis [31] = assay: Antifungal activity against Candida orthopsilosis clinical isolate bloodstream form assessed as induction of maximal fungal death at 16 mg/L after 48 hrs by time-kill assay; format: functional, organism-based
Candida metapsilosis [32] = assay: Fungicidal activity against Candida metapsilosis isolate CP-132 bloodstream form by CLSI method; format: functional; settings: Lodderomyces metapsilosis
Candida orthopsilosis [33] = assay: Antifungal activity against Candida orthopsilosis clinical isolate bloodstream form assessed as minimum concentration required for => 3-log decrease in fungal growth after 12 to 48 hrs by time-kill assay; format: functional
Candida metapsilosis [34] = assay: Antifungal activity against Candida metapsilosis clinical isolate bloodstream form assessed as time required for 99% reduction in fungal growth at 0.25 mg/L by time-kill assay; format: functional
Candida parapsilosis [35] = assay: Antifungal activity against Candida parapsilosis clinical isolate bloodstream form assessed as time required for 50% reduction in fungal growth at 1 mg/L by time-kill assay; format: functional
Candida parapsilosis [36] = assay: Antifungal activity against Candida parapsilosis clinical isolate bloodstream form assessed as time required for 50% reduction in fungal growth at 16 mg/L by time-kill assay; format: functional
Candida parapsilosis [37] = assay: Antifungal activity against Candida parapsilosis clinical isolate bloodstream form assessed as fungal count at 4 mg/L measured at 6 hrs by time-kill assay; format: functional
Candida parapsilosis [38] = assay: Antifungal activity against Candida parapsilosis clinical isolate bloodstream form assessed as time required for 90% reduction in fungal growth at 0.25 mg/L by time-kill assay; format: functional
Candida orthopsilosis [39] = assay: Antifungal activity against Candida orthopsilosis clinical isolate bloodstream form assessed as mild induction of fungal death at 0.03 to 32 mg/L after 6 hrs by time-kill assay; format: functional, organism-based
Candida metapsilosis [40] = assay: Antifungal activity against Candida metapsilosis clinical isolate bloodstream form assessed as minimum concentration required for => 3-log decrease in fungal growth after 12 to 48 hrs by time-kill assay; format: functional
Candida parapsilosis [41] = assay: Antifungal activity against Candida parapsilosis clinical isolate bloodstream form assessed as fungal count at 1 mg/L measured at 6 hrs by time-kill assay; format: functional

## CC[C@H](C)C[C@H](C)CCCCCCCCC(=O)N[C@H]1C[C@@H](O)[C@@H](NCCN)NC(=O)[C@@H]2[C@@H](O)CCN2C(=O)[C@H]([C@H](O)CCN)NC(=O)[C@H]([C@H](O)[C@@H](O)c2ccc(O)cc2)NC(=O)[C@@H]2C[C@@H](O)CN2C(=O)[C@H]([C@@H](C)O)NC1=O [CASPOFUNGIN]
Candida orthopsilosis [1]
  Time: 7.45 h
Candida metapsilosis [2]
  Time: >48 h
Candida orthopsilosis [3]
  Time: 3.86 h
Candida orthopsilosis [4]
  Time: >48 h
Candida orthopsilosis [5]
  MIC: 0.5 µg/mL (≈ 0.457 µM)
Candida orthopsilosis [6]
  Time: 11.35 h
Candida parapsilosis [7]
  Time: >48 h
Candida parapsilosis [8]
  MIC: 2 µg/mL (≈ 1.83 µM)
Candida parapsilosis [9]
  inhibition: inactive
Candida orthopsilosis [10]
  Time: 22.7 h
Candida parapsilosis [11]
  Time: >48 h
Candida metapsilosis [12]
  Time: >48 h
Candida parapsilosis [13]
  Time: >48 h
Candida parapsilosis [14]
  MIC: 2 µg/mL (≈ 1.83 µM)
Candida orthopsilosis [15]
  Time: 10.53 h
Candida metapsilosis [16]
  Activity: inactive
Candida metapsilosis [17]
  Time: 2.59 h
Candida metapsilosis [18]
  Time: 25.58 h
Candida parapsilosis [19]
  Time: >48 h
Candida orthopsilosis [20]
  MIC: 0.5 µg/mL (≈ 0.457 µM)
Candida parapsilosis [21]
  MED: 14 mg/L
Candida parapsilosis [22]
  Time: 8.61 h
Candida orthopsilosis [23]
  Time: >48 h
Candida metapsilosis [24]
  Time: 7.7 h
Candida parapsilosis [25]
  Time: >48 h
Candida orthopsilosis [26]
  Time: >48 h
Candida orthopsilosis [27]
  Activity: Active
Candida orthopsilosis [28]
  Time: 3.42 h
Candida metapsilosis [29]
  Time: >48 h
Candida parapsilosis [30]
  Time: 6.6 h
Candida orthopsilosis [31]
  Activity: Active
Candida metapsilosis [32]
  MIC: 0.25 µg/mL (≈ 0.229 µM)
Candida orthopsilosis [33]
  MED: 14 mg/L
Candida metapsilosis [34]
  Time: >48 h
Candida parapsilosis [35]
  Time: 22.3 h
Candida parapsilosis [36]
  Time: 2.59 h
Candida parapsilosis [37]
  log10cfu: 1.43 /ml
Candida parapsilosis [38]
  Time: >48 h
Candida orthopsilosis [39]
  Activity: Active
Candida metapsilosis [40]
  MED: 14 mg/L

## CCCCCOc1ccc(-c2cc(-c3ccc(C(=O)N[C@H]4C[C@@H](O)[C@@H](O)NC(=O)[C@@H]5[C@@H](O)[C@@H](C)CN5C(=O)[C@H]([C@H](O)CC(N)=O)NC(=O)[C@H]([C@H](O)[C@@H](O)c5ccc(O)c(OS(=O)(=O)O)c5)NC(=O)[C@@H]5C[C@@H](O)CN5C(=O)[C@H]([C@@H](C)O)NC4=O)cc3)no2)cc1 [MICAFUNGIN] (X1-[Orn(4R-OH,5R-OH)]T[Hyp][hTyr(3S-OH,4S-OH,3'-OSO3H)][Gln(3R-OH)][Pro(3S-OH,4S-Me)]; lactam 1-C)
Candida parapsilosis [41]
  log10cfu: 1.22 /ml
Candida orthopsilosis [1]
  Time: 3.05 h
Candida metapsilosis [2]
  Time: 11.79 h
Candida orthopsilosis [3]
  Time: 1.38 h
Candida orthopsilosis [4]
  Time: >48 h
Candida orthopsilosis [5]
  MIC: 0.25 µg/mL (≈ 0.197 µM)
Candida orthopsilosis [6]
  Time: 5.53 h
Candida parapsilosis [7]
  Time: inactive
Candida parapsilosis [8]
  MIC: 0.25 µg/mL (≈ 0.197 µM)
Candida parapsilosis [9]
  inhibition: inactive
Candida orthopsilosis [10]
  Time: 11.06 h
Candida parapsilosis [11]
  Time: inactive
Candida metapsilosis [12]
  Time: >48 h
Candida parapsilosis [13]
  Time: >48 h
Candida parapsilosis [14]
  MIC: 1 µg/mL (≈ 0.787 µM)
Candida orthopsilosis [15]
  Time: 1.54 h
Candida metapsilosis [16]
  Activity: inactive
Candida metapsilosis [17]
  Time: 1.45 h
Candida metapsilosis [18]
  Time: 5.89 h
Candida parapsilosis [19]
  Time: >48 h
Candida orthopsilosis [20]
  MIC: 0.5 µg/mL (≈ 0.394 µM)
Candida parapsilosis [22]
  Time: 31.55 h
Candida orthopsilosis [23]
  Time: 30.4 h
Candida metapsilosis [24]
  Time: 1.77 h
Candida parapsilosis [25]
  Time: inactive
Candida orthopsilosis [26]
  Time: >48 h
Candida orthopsilosis [28]
  Time: 1.66 h
Candida metapsilosis [29]
  Time: 20.3 h
Candida parapsilosis [30]
  Time: 20.45 h
Candida orthopsilosis [31]
  Activity: Active
Candida metapsilosis [32]
  MIC: 0.5 µg/mL (≈ 0.394 µM)
Candida metapsilosis [34]
  Time: >48 h
Candida parapsilosis [35]
  Time: inactive
Candida parapsilosis [36]
  Time: 9.5 h
Candida parapsilosis [38]
  Time: inactive
Candida orthopsilosis [39]
  Activity: Active
